According to patent US20250313546A1, “NUCLEIC ACID BINDERS” (UNIVERSITY OF STRATHCLYDE, priority 2022, published 2025):
Converted amounts (≈) assume the structure as drawn.

Legend:
[1] = test system: Staphylococcus aureus (ATCC 43300); assay: Antibacterial MIC, broth microdilution (CLSI); format: cell-based; conditions: for S. aureus Selectivity Indices, Group: SI, IC50 (μM)/MIC80 (μM), HEK293 cytotoxicity, Alkyl Amidines and NH Pyrroles; for MIC80: Staphylococcus aureus, ATCC43300, read-out: MIC80 S. aureus
[2] = test system: Enterococcus faecalis (ATCC 51299); assay: Antibacterial MIC, broth microdilution (CLSI); format: cell-based; conditions: for MIC80: Enterococcus faecalis, ATCC51299, read-out: MIC80 E. faecalis; for E. faecalis Selectivity Indices, Group: Alkyl Amidines and NH Pyrroles
[3] = test system: Escherichia coli (ATCC 25922); assay: Antibacterial MIC, broth microdilution (CLSI); format: cell-based; conditions: Escherichia coli, ATCC25922; read-out: MIC80 E. coli
[4] = test system: Genomic double stranded DNA (salmon); assay: Fluorescence intercalator displacement (FID) assay, SYBR-safe probe; conditions: 20 μM compound, 30° C., lower % = stronger binding
Method in brief: (§1)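 Compound at 20 μM mixed with 3.76 ng/mL polyAU dsRNA or salmon genomic dsDNA and 12500-fold diluted SybrSafe in 1 mM phosphate buffer pH 7.4, then heated to 30 °C and fluorescence read. Reduction is expressed as normalised %, with nucleic acid plus probe as maximum and probe alone as minimum.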

[5] = test system: PolyAU double stranded RNA; assay: as above; conditions: 20 μM compound, 30° C., lower % = stronger binding
Method in brief: as §1

C. albicans (ATCC 90028) = conditions: Candida albicans, ATCC90028, read-out: MIC99 C. albicans
Description: (§2) The Minimum Inhibitory Concentration (MIC, at 99% inhibition) of the compounds was determined using the broth microdilution method as recommended by EUCAST (EUCAST Definitive Document E.DEF 9.3.2, Method for the determination of broth dilution minimum inhibitory concentrations of antifungal agents for conidia forming moulds and EUCAST Definitive Document E.DEF 7.3.2 Method for the determination of broth dilution minimum inhibitory concentrations of antifungal agents for yeasts).

C. neoformans (F10025) = conditions: Cryptococcus neoformans, read-out: MIC99 C. neoformans
Description: as §2

[6] = test system: A. fumigatus A1160 (MFIG001); conditions: Aspergillus fumigatus, read-out: MIC99 A. fumigatus A1160
A. flavus (CBS 128.202) = conditions: Aspergillus flavus, CBS128, read-out: MIC99 A. flavus
Description: as §2

[7] = test system: Rhizopus arrhizus (NEQAS12.35321); conditions: read-out: MIC99 Rhizopus arrhizus
Candida auris (H.17.157) = conditions: for MIC99: Candidozyma auris, read-out: MIC99 Candida auris
[8] = test system: Candida glabrata (ACPF3309); conditions: Nakaseomyces glabratus, read-out: MIC99 Candida glabrata
[9] = test system: Fusarium oxysporum (F7098); conditions: read-out: MIC99 Fusarium oxysporum
Description: as §2

[10] = test system: Scedosporium prolificans (F2746); conditions: Lomentospora prolificans, read-out: MIC99 Scedosporium prolificans
Description: as §2

T. equiperdum = assay: Resazurin-based (Alamar blue) drug sensitivity assay; conditions: Trypanosoma equiperdum, read-out: IC50 T. equiperdum
T. evansi AntTat 3/3 = assay: as above; conditions: read-out: IC50 T. evansi
Description: A detailed description of the procedure for evaluating activity against trypanosomes, using an Alamar Blue (resazurin) assay, is described below.
The bloodstream form (BSF) T. b. brucei s427 (see De Koning, H. P. et al., Mol. Biochem. Parasitol. 2000, 106, 181-185), T. evansi AntTat 3/3 (see Dean, S. et al., Proc. Natl. Acad. Sci. USA, 2013, 110, 14741-14746), and T. equiperdum (see Stewart, M. L. et al., Eukaryot. Cell, 2010, 9, 336-343) were cultured in HMI-9 medium (Life Technologies, Paisley, United Kingdom) supplemented with 10% heat inactivated Foetal Bovine Serum (FBS (PAA Laboratories Linz, Austria)), 14 μL/L β-mercaptoethanol (BDH, Dorset, UK), and 3.0 g/L NaHCO3 (Sigma-Aldrich) and adjusted to pH 7.4. These cell lines were maintained at 37° C. in a humidified, 5% CO2 environment.
A resazurin-based (Alamar blue) drug sensitivity assay was used to assess and compare the activity of standard trypanocides in the different cell lines investigated (see Gould, M. K. et al., Anal. Biochem., 2008, 382, 87-93). Briefly, 23 doubling dilutions of the test compound of the invention, starting at 100 μM, and a compound-free control were prepared in 100 μL medium in a 96-well white plate (Greiner Bio-one, Frickenhausen, Germany). The cells were adjusted to 2×10^4 cells/mL for T. b. brucei and T. equiperdum; 4×10^4 cells/mL for T. evansi; and 5×10^5 cells/mL for T. congolense in the appropriate medium. 100 μL of the adjusted cells was then added to the wells containing drug dilutions and incubated for 48 h under respective culture condition. Thereafter, 20 μL of 125 mg/mL resazurin sodium dye was added, and the plate was incubated for a further 24 h.

[11] = test system: SARS-CoV-2 (hCoV-19/Australia/VIC01/2020); assay: SARS-CoV-2 microplaque inhibition assay in Vero-E6 cells; format: cell-based; conditions: for IC50: Severe acute respiratory syndrome coronavirus 2, Vero C1008, plaque inhibition, Vero-E6 cells, read-out: IC50 SARS-CoV-2
[12] = test system: Human rhinovirus (HRV-14); assay: Viral ToxGlo assay, Hela Ohio cells; format: cell-based; conditions: M-HeLa, 72 h
Influenza (H1N1) = assay: Accelerated Viral Neuraminidase Inhibition Assay (AVINA), A549 cells; format: cell-based; conditions: Influenza A virus, 72 h
T. vaginalis = assay: Trichomonas resorufin assay; format: cell-based
[13] = test system: human respiratory syncytial virus (RSV A2); assay: Viral ToxGlo assay, Hep-2 cells; format: cell-based; conditions: 72 h
[14] = SI, IC50 (μM)/MIC80 (μM), HEK293 cytotoxicity
[15] = SI, IC50 (μM)/IC50 (μM), HEK293 cytotoxicity, Alkyl Amidines and NH Pyrroles

Compound | S. aureus Selectivity Indices, Group [1] | MIC80 [1] | MIC80 [2] | E. faecalis Selectivity Indices, Group [2, 14] | MIC80 [3] | % Normalised Fluorescence with gDNA [4] | % Normalised Fluorescence with polyAU RNA [5] | MIC99 (C. albicans (ATCC 90028)) | MIC99 (C. neoformans (F10025)) | MIC99 [6] | MIC99 (A. flavus (CBS 128.202)) | MIC99 [7] | MIC99 (Candida auris (H.17.157)) | MIC99 [8] | MIC99 [9] | MIC99 [10] | IC50 (T. equiperdum) | IC50 (T. evansi AntTat 3/3) | IC50 [11] | inhibition at 20 µM [12] | other results
Cn1cc(NC(=O)c2cc(NC(=O)c3ccc(/C=C/c4ccc5nonc5c4)cc3)c[nH]2)cc1C(=O)NCCC(=N)N [IIIa1, (E)-N-(3-amino-3-iminopropyl)-4-(4-(4-(2-(benzo[c][1,2,5]oxadiazol-5-yl)vinyl)benzamido)-1H-pyrrole-2-carboxamido)-1-methyl-1H-pyrrole-2-carboxamide] | C (Group C: 5 < SI <= 10) | < 5 µM | 5 to 25 µM (≈ 2.83 to 14.1 µg/mL) | B (Group B: 3 < SI <= 5) | > 100 µM | 17% | 18% | 25 to 50 µg/mL (≈ 44.2 to 88.4 µM) | < 5 µg/mL | 5 to 25 µg/mL (≈ 8.84 to 44.2 µM) | 5 to 25 µg/mL (≈ 8.84 to 44.2 µM) | 5 to 25 µg/mL (≈ 8.84 to 44.2 µM) | > 50 µg/mL | < 5 µg/mL | 5 to 25 µg/mL (≈ 8.84 to 44.2 µM) | 5 to 25 µg/mL (≈ 8.84 to 44.2 µM) | 10 to 100 nM | 10 to 100 nM | – | – | –
CN(C)c1ccc(/C=C/c2ccc(C(=O)Nc3c[nH]c(C(=O)Nc4cc(C(=O)NCCC(=N)N)n(C)c4)c3)cn2)cc1 [IIIa5, (E)-N-(5-((5-((3-amino-3-iminopropyl)carbamoyl)-1-methyl-1H-pyrrol-3-yl)carbamoyl)-1H-pyrrol-3-yl)-6-(4-(dimethylamino)styryl)nicotinamide] | C (Group C: 5 < SI <= 10) | < 5 µM | 5 to 25 µM (≈ 2.84 to 14.2 µg/mL) | – | > 100 µM | 11% | 3% | < 5 µg/mL | – | 5 to 25 µg/mL (≈ 8.81 to 44 µM) | 5 to 25 µg/mL (≈ 8.81 to 44 µM) | 5 to 25 µg/mL (≈ 8.81 to 44 µM) | 5 to 25 µg/mL (≈ 8.81 to 44 µM) | 5 to 25 µg/mL (≈ 8.81 to 44 µM) | – | – | 100 to 1000 nM | – | < 2000 nM | > 50% | SARS-CoV-2 Selectivity Indices, Group [11, 15]: D (Group D: SI > 25); SARS-CoV-2 Selectivity Index (SI) ([11]; SI, IC50 (μM)/IC50 (μM), HEK293 cytotoxicity, numeric value): 39; inhibition at 20 µM (Influenza (H1N1)): 25 to 50%; C. auris Selectivity Indices, Group (Candida auris (H.17.157); SI, IC50 (μM)/MIC99 (μg/mL), HEK293 cytotoxicity, Alkyl Amidines and NH Pyrroles): D (Group D SI > 3); C. auris Selectivity Index (SI) (Candida auris (H.17.157); SI, IC50 (μM)/MIC99 (μg/mL), HEK293 cytotoxicity, numeric value): 5
CN(C)c1ccc(/C=C/c2ccc(C(=O)Nc3cc(C(=O)Nc4c[nH]c(C(=O)NCCN5CCOCC5)c4)n(C)c3)cn2)cc1 [IIIb3, (E)-6-(4-(dimethylamino)styryl)-N-(1-methyl-5-((5-((2-morpholinoethyl)carbamoyl)-1H-pyrrol-3-yl)carbamoyl)-1H-pyrrol-3-yl)nicotinamide] | – | < 5 µM | > 100 µM | – | > 100 µM | 31% | 39% | > 50 µg/mL | > 50 µg/mL | 25 to 50 µg/mL (≈ 40.9 to 81.9 µM) | > 50 µg/mL | > 50 µg/mL | > 50 µg/mL | > 50 µg/mL | > 50 µg/mL | > 50 µg/mL | – | – | – | – | –
C/N=C(/CCNC(=O)c1cc(NC(=O)c2cc(NC(=O)c3ccc(/C=C/c4ccc5nonc5c4)cc3)cn2C)cn1C)NC [Ia6, 4-(4-((E)-2-(benzo[c][1,2,5]oxadiazol-5-yl)vinyl)benzamido)-1-methyl-N-(1-methyl-5-(((Z)-3-(methylamino)-3-(methylimino)propyl)carbamoyl)-1H-pyrrol-3-yl)-1H-pyrrole-2-carboxamide] | – | < 5 µM | < 5 µM | – | > 100 µM | 3% | 6% | < 5 µg/mL | < 5 µg/mL | < 5 µg/mL | < 5 µg/mL | 5 to 25 µg/mL (≈ 8.23 to 41.1 µM) | > 50 µg/mL | < 5 µg/mL | < 5 µg/mL | < 5 µg/mL | – | – | – | – | –
C/N=C(/CCNC(=O)c1cc(NC(=O)c2cc(NC(=O)c3ccc(/C=C/c4nc5ccccc5s4)cc3)cn2C)cn1C)NC [Ia11, 4-(4-((E)-2-(benzo[d]thiazol-2-yl)vinyl)benzamido)-1-methyl-N-(1-methyl-5-(((Z)-3-(methylamino)-3-(methylimino)propyl)carbamoyl)-1H-pyrrol-3-yl)-1H-pyrrole-2-carboxamide] | – | 5 to 25 µM (≈ 3.11 to 15.6 µg/mL) | > 100 µM | – | > 100 µM | – | – | 5 to 25 µg/mL (≈ 8.03 to 40.1 µM) | < 5 µg/mL | 5 to 25 µg/mL (≈ 8.03 to 40.1 µM) | – | 5 to 25 µg/mL (≈ 8.03 to 40.1 µM) | > 50 µg/mL | < 5 µg/mL | – | 5 to 25 µg/mL (≈ 8.03 to 40.1 µM) | – | – | 8000 to 32000 nM | – | –
CC/N=C(\N)CCNC(=O)c1cc(NC(=O)c2cc(NC(=O)c3ccc(/C=C/c4ccc5nonc5c4)cc3)cn2C)cn1C [Ia12, N—((Z)-3-amino-3-(ethylimino)propyl)-4-(4-(4-((E)-2-(benzo[c][1,2,5]oxadiazol-5-yl)vinyl)benzamido)-1-methyl-1H-pyrrole-2-carboxamido)-1-methyl-1H-pyrrole-2-carboxamide] | C (Group C: 5 < SI <= 10) | 5 to 25 µM (≈ 3.04 to 15.2 µg/mL) | < 5 µM | D (D: SI > 10) | > 100 µM | 2% | 2% | – | 5 to 25 µg/mL (≈ 8.23 to 41.1 µM) | > 50 µg/mL | – | – | – | 5 to 25 µg/mL (≈ 8.23 to 41.1 µM) | – | – | 100 to 1000 nM | 100 to 1000 nM | 8000 to 32000 nM | 10 to 25% | E. faecalis Selectivity Index (SI) ([2]; SI, IC50 (μM)/MIC80 (μM), HEK293 cytotoxicity, numeric value): 23; T. vaginalis Selectivity Indices, Group (T. vaginalis; [15]): B (Group B: 8 < SI <= 16); IC50 (T. vaginalis; Trichomonas vaginalis, read-out: IC50 T. vaginalis): 1000 to 5000 nM; inhibition at 20 µM [13]: > 50%; inhibition at 20 µM (Influenza (H1N1)): > 50%
